Assay results published in article PMC10004598, “Identification and Characterization of a Novel Cathelicidin from Hydrophis cyanocinctus with Antimicrobial and Anti-Inflammatory Activity” (Molecules, 2023).
Converted amounts (≈) assume the structure as drawn. Read-outs that look alike come from different tables or passages of the source. No end group written: not given here.

Legend:
E. coli [1] = type: cell-based, Escherichia coli; settings: compound at MBC, 37 °C
Method: Time-killing kinetics were determined with the method as previously described. […] The mixture was sampled 50 μL at 5, 15, 30, 60, 120, 240, and 480 min. Dilute the samples with sterile MH broth to a 10-fold gradient. Bacterial suspensions were plated at MH agar plates. After incubation at 37 °C for 12 h, the number of colonies was calculated.

[2] = system: K. pneumoniae 50 (clinical isolate); experiment: microbe, parasite or virus in culture
Method: (§1) The microorganisms (Staphylococcus aureus [ATCC 25923], Escherichia coli [ATCC 25922], and Propionibacterium acnes [ATCC 6919]) were obtained from Fuxiang Biotechnology (Shanghai, China). The five strains of K. pneumoniae clinical isolates (44, 48, 49, 50, and 51) were obtained from the Department of Critical Care Medicine, Shanghai Tenth People’s Hospital.
(§2) The antimicrobial assay was performed by broth microdilution method, following the guidelines of the Clinical and Laboratory Standards Institute. Strains (mentioned in Section 4.3) were inoculated into Mueller-Hinton broth (MH), oscillated (37 °C, 220 rpm, 12 h) to the logarithmic growth stage, and then diluted to 10^6 CFU/mL. […] Then, the absorbance was measured at 600 nm in a microplate reader (Epoch Biotek, Winooski, VT, USA). […] The minimum inhibitory concentration (MIC) was defined as the lowest concentration of an antimicrobial where there was no visible growth. After measuring the MIC, a 50 μL sample was taken from the growth well without visible bacteria, serially diluted with phosphate-buffered saline (PBS, pH = 7.0), then spread on an MH agar solid medium and incubated at 37 °C for 12 h. The number of colonies was calculated, and the minimum drug concentrations that killed 99.9% of bacteria were considered the minimum bactericidal concentration (MBC) of the peptide.

[3] = system: Klebsiella pneumoniae 44 (clinical isolate); experiment: microbe, parasite or virus in culture
Method: as §1, §2

[4] = system: K. pneumoniae 51 (clinical isolate); experiment: microbe, parasite or virus in culture
Method: as §1, §2

[5] = system: Propionibacterium acnes [ATCC 6919]; experiment: microbe, parasite or virus in culture
Method: as §1, §2

[6] = system: Escherichia coli [ATCC 25922]; experiment: microbe, parasite or virus in culture
Method: as §1, §2

[7] = system: K. pneumoniae 48 (clinical isolate); experiment: microbe, parasite or virus in culture
Method: as §1, §2

[8] = system: K. pneumoniae 49 (clinical isolate); experiment: microbe, parasite or virus in culture
Method: as §1, §2

[9] = system: Staphylococcus aureus [ATCC 25923]; settings: broth microdilution, MH broth, 37 °C, 16–20 h
Method: as §1, §2

E. coli [10] = settings: mean of three independent experiments in triplicate
Method: E. coli was inoculated into MH broth and oscillated (37 °C, 220 rpm, 12 h) to the logarithmic growth stage. Then diluted to 10^6 CFU/mL in MH broth with NaCl (0, 50, 100, 150, and 200 mM) or CaCl2 (1, 2, and 4 mM). […] The absorption value was detected at 600 nm.

E. coli [11] = settings: mean of three independent experiments in triplicate; remark: listed apart in the source
Method: E.coli was inoculated into MH broth and oscillated (37 °C, 220 rpm, 12 h) to the logarithmic growth stage. Then diluted to 10^6 CFU/mL. […] Then, the absorbance was measured at 600 nm.

[12] = system: S. aureus biofilm formation; experiment: Biofilm inhibition assay (crystal violet); type: cell-based, Staphylococcus aureus; settings: 2 × MIC, 37 °C, 24 h, absorbance 600 nm, three independent experiments in quintuplicate
Method: Sterile PBS was used to wash 3 times and methanol was used to fix it for 0.5 h. After drying, 1% crystal violet solution was used to stain for 0.5 h, washed 3 times with sterilized deionized water, and dissolved with 100 μL anhydrous ethanol. The absorbance was measured at 600 nm.

E. coli [13] = settings: human serum:peptide solution (10 mg/mL) 4:1 v:v, 37 °C, read-out MIC, mean of three independent experiments in triplicate
Method: The same amount of solution was taken at each time point and gradient dilution was carried out with normal saline.

[14] = system: L929 (mouse fibroblast cell line); experiment: Cytotoxicity assay (CCK-8); type: cell-based; settings: L929, 32 μg/mL, 24 h, mean of three independent experiments in triplicate
Method: (§3) RAW264.7 (murine macrophage cell line), L929 (mouse fibroblast cell line), and HaCaT (human immortal keratinocyte cell line) were purchased from the Shanghai Institute of Biochemistry and Cell Science, Chinese Academy of Sciences.
(§4) The cells were cultured using a DMEM medium containing 10%FBS and 1% penicillin-streptomycin solution. In 96-well plates, 100 µL of cells (2 × 10^4 cells/well) in DMEM were seeded and cultured overnight in an incubator at 5% CO2 and 37 °C. […] Subsequently, the medium was replaced by 100 μL DMEM containing 10% Cell Counting Kit-8 reagent, and incubated for 0.5 h at 37 °C. The absorbance was measured at […].

[15] = system: HaCaT (human immortal keratinocyte cell line); experiment: Cytotoxicity assay (CCK-8); type: cell-based; settings: 32 μg/mL, 24 h, mean of three independent experiments in triplicate
Method: as §3, §4

E. coli [16] = settings: mean of three independent experiments in triplicate; remark: listed apart in the source
Method: E. coli was inoculated into MH broth and oscillated (37 °C, 220 rpm, 12 h) to the logarithmic growth stage. Then diluted to 10^6 CFU/mL. […] The MICs of these peptides were then measured.

human erythrocytes = human erythrocytes 2% suspension, 250 μg/mL, 37 °C, 0.5 h, absorbance 540 nm, 1% Triton X-100 = complete hemolysis; mean of three independent experiments in triplicate
Method: Centrifuge at 25 °C at 1500 rpm for 5 min. Transfer 180 μL of supernatant to a 96-well plate and measure absorbance value at 540 nm. Normal saline was used as a negative control and 1% Triton X-100 solution as a positive control (complete hemolysis).

## CC1(C)S[C@@H]2[C@H](NC(=O)[C@H](N)c3ccccc3)C(=O)N2[C@H]1C(=O)O [Ampicillin, reference compound]
E. coli [1]
  time at which bacteriostatic effect starts: ≥ 1 h
E. coli [1]; 8 h
  killing of E. coli within 8 h: failed to completely kill
E. coli [1]; after 4 h
  killing rate: about 47%
[2]; Klebsiella pneumoniae
  MIC: > 128 µg/mL
[3]; Klebsiella pneumoniae
  MIC: > 128 µg/mL
[4]; Klebsiella pneumoniae
  MIC: > 128 µg/mL
[5]; Cutibacterium acnes, ATCC6919
  MIC: 0.25 µg/mL (≈ 0.715 µM)
[6]; ATCC25922, 12 h
  MBC: 16 µg/mL (≈ 45.8 µM)
[7]; Klebsiella pneumoniae
  MIC: > 128 µg/mL
[8]; Klebsiella pneumoniae
  MIC: > 128 µg/mL

## KRFKKFFKKLRKSVKKRVKKFFKKPKVIGVSIPF [Hydrostatin-AMP2]
[9]
  MIC: 32 µg/mL
E. coli [10]; Control (NaCl 0 mM, untreated peptide)
  MIC: 16 µg/mL
E. coli [10]; MH broth with CaCl2 1 mM
  MIC: 64 µg/mL
E. coli [10]; MH broth with CaCl2 2 mM
  MIC: 64 µg/mL
E. coli [10]; MH broth with CaCl2 4 mM
  MIC: 128 µg/mL
E. coli [10]; MH broth with NaCl 50 mM
  MIC: 32 µg/mL
E. coli [10]; MH broth with NaCl 100 mM
  MIC: 32 µg/mL
E. coli [10]; MH broth with NaCl 150 mM
  MIC: 32 µg/mL
E. coli [10]; MH broth with NaCl 200 mM
  MIC: 64 µg/mL
E. coli [11]; peptide incubated at 4 °C for 1 h
  MIC after incubation at temperature: 32 µg/mL
E. coli [11]; peptide incubated at 37 °C for 1 h
  MIC after incubation at temperature: 32 µg/mL
E. coli [11]; peptide incubated at 80 °C for 1 h
  MIC after incubation at temperature: 32 µg/mL
E. coli [11]; peptide incubated at 100 °C for 1 h
  MIC after incubation at temperature: 64 µg/mL
[12]
  inhibition of biofilm formation: 71.02%
E. coli [13]; 1 h
  MIC after incubation with human serum: 32 µg/mL
E. coli [13]; 2 h
  MIC after incubation with human serum: 32 µg/mL
E. coli [13]; 3 h
  MIC after incubation with human serum: 32 µg/mL
[14]
  Cell Death: 8.08%
[15]
  Cell Death: 5.89%
[2]; K. pneumoniae 50, clinical isolate, broth microdilution, MH broth, 37 °C, 16–20 h
  MIC: 32 µg/mL
[3]; Klebsiella pneumoniae 44, clinical isolate, broth microdilution, MH broth, 37 °C, 16–20 h
  MIC: 32 µg/mL
[4]; K. pneumoniae 51, clinical isolate, broth microdilution, MH broth, 37 °C, 16–20 h
  MIC: 32 µg/mL
[5]; Propionibacterium acnes, broth microdilution, MH broth, 37 °C, 16–20 h
  MIC: 32 µg/mL
[6]; broth microdilution (CLSI), MH broth, 10^6 CFU/mL, 37 °C, 16–20 h, absorbance 600 nm
  MIC: 16 µg/mL
[6]; minimum concentration killing 99.9% of bacteria, plating on MH agar, 37 °C, 12 h
  MBC: 32 µg/mL
[7]; K. pneumoniae 48, clinical isolate, broth microdilution, MH broth, 37 °C, 16–20 h
  MIC: 16 µg/mL
[8]; K. pneumoniae 49, clinical isolate, broth microdilution, MH broth, 37 °C, 16–20 h
  MIC: 32 µg/mL
E. coli [16]; peptide incubated in PBS pH 2 for 4 h at 37 °C
  MIC after incubation at pH 2: 64 μg/mL
E. coli [16]; peptide incubated in PBS pH 12 for 4 h at 37 °C
  MIC after incubation at pH 12: 64 μg/mL
Human erythrocytes
  Hemolysis: 4.6%
